Source: US8618107B2 (Gilead Connecticut, Inc., priority 2010, dated 2013)
One block for each compound: values may come before it.

What was measured:
[1] = system: CD86 surface expression on CD19+/7AAD- mouse splenocytes stimulated with IgM; assay: CD86 Inhibition Assay; assay type: cell-based; conditions: Splenocyte; total mouse splenocytes (Balb/c), IgM stimulation 24 hr
Protocol: Following the 24 hr incubation, cells are transferred to conical bottom clear 96-well plates and pelleted by centrifugation at 1200×g×5 min. […] Cells are sorted on a BD FACSCalibur and gated on the CD19^+/7AAD^− population. The levels of CD86 surface expression on the gated population is measured versus test compound concentration.

[2] = system: CD69 on CD20 positive cells in human whole blood stimulated by anti-IgM; assay: CD69 Whole Blood Assay; assay type: cell-based; conditions: anti-human IgM stimulation, 20 hours
Protocol: Human blood is obtained from healthy volunteers, with the following restrictions: 1 week drug-free, non-smokers. Blood (approximately 20 mls to test 8 compounds) is collected by venipuncture into Vacutainer® (Becton, Dickinson and Co.) tubes with sodium heparin.
Solutions of Formula I compounds at 10 mM in DMSO are diluted 1:10 in 100% DMSO, then are diluted by three-fold serial dilutions in 100% DMSO for a ten point dose-response curve. The compounds are further diluted 1:10 in PBS and then an aliquot of 5.5 μl of each compound is added in duplicate to a 2 ml 96-well plate; 5.5 μl of 10% DMSO in PBS is added as control and no-stimulus wells. Human whole blood—HWB (100 μl) is added to each well. After mixing the plates are incubated at 37° C., 5% CO2, 100% humidity for 30 minutes. Goat F(ab′)2 anti-human IgM (10 μl of a 500 μg/ml solution, 50 μg/ml final) is added to each well (except the no-stimulus wells) with mixing and the plates are incubated for an additional 20 hours. At the end of the 20 hour incubation, samples are incubated with fluorescent labeled antibodies for 30 minutes, at 37° C., 5% CO2, 100% humidity. Include induced control, unstained and single stains for compensation adjustments and initial voltage settings. Samples are then lysed with PharM Lyse™ (BD Biosciences Pharmingen) according to the manufacturer's instructions. Samples are then transferred to a 96 well plate suitable to be run on the BD Biosciences HTS 96 well system on the LSRII machine. Data acquired and Mean Fluorescence Intensity values were obtained using BD Biosciences DIVA Software. Results are initially analyzed by FACS analysis software (Flow Jo). […] The IC50 values are calculated by Prism version 5, using a nonlinear regression curve fit.

[3] = target: Btk (Homo sapiens (Human), UniProt Q06187); assay: standard biochemical Btk Kinase Assay (Example 901)
Btk, sequence (Q06187 whole entry): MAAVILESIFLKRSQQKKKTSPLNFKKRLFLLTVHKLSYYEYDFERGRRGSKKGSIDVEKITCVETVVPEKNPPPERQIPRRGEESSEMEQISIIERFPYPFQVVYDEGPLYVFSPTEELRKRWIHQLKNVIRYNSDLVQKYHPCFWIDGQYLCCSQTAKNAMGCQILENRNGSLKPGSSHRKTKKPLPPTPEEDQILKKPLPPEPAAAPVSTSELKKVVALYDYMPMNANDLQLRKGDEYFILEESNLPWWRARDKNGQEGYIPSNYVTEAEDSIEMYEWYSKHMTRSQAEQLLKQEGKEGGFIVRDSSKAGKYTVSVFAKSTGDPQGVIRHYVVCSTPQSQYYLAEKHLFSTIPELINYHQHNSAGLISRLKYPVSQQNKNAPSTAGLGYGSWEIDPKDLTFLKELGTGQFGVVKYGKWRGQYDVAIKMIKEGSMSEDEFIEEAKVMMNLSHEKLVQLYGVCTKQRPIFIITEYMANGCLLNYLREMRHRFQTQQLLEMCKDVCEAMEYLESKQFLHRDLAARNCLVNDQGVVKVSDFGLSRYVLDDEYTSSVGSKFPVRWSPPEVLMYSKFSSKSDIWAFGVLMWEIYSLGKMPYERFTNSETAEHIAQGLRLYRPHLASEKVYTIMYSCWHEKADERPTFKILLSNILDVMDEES
Description: Determination of IC50 values can be accomplished using conventional techniques known in the art. In general, an IC50 can be determined by measuring the activity of a given enzyme in the presence of a range of concentrations of the inhibitor under study. The experimentally obtained values of enzyme activity then are plotted against the inhibitor concentrations used. […] Analogously, other inhibitory concentrations can be defined through appropriate determinations of activity.

melting point: 164 to 166 °C
Structure (SMILES): CN1CCCC1c1ccc(Nc2cc(-c3cc(F)cc(N4CCc5c(sc6c5CCCC6)C4=O)c3CO)cn(C)c2=O)nc1 (stereo not shown)

Structure (SMILES): CN(C)CCN(C)c1ccc(Nc2cc(-c3cc(F)cc(N4CCc5c(sc6c5CCCC6)C4=O)c3CO)cn(C)c2=O)nc1 [Example 286, 2-(3-(5-(5-((2-(Dimethylamino)ethyl)(methyl)amino)pyridin-2-ylamino)-1-methyl-6-oxo-1,6-dihydropyridin-3-yl)-5-fluoro-2-(hydroxymethyl)phenyl)-3,4,5,6,7,8-hexahydrobenzothieno[2,3-c]pyridin-1(2H)-one]
EC50 [1]: 4 nM
melting point: 122 to 123 °C

melting point: 191 to 192 °C
Structure (SMILES): CC(C)N1CCN(c2ccc(Nc3cc(-c4cc(F)cc(N5CCc6c(sc7c6CC(C)(C)C7)C5=O)c4CO)cn(C)c3=O)nc2)CC1 [Example 239]

IC50 [2]: 24 nM
Structure (SMILES): CN1CCC(c2ccc(Nc3cc(-c4cccc(N5CCc6c(sc7c6CC(C)(C)C7)C5=O)c4CO)cn(C)c3=O)nc2)CC1 [Example 325, 10-[2-(Hydroxymethyl)-3-(1-methyl-5-{[5-(1-methylpiperidin-4-yl)pyridine-2-yl]amino}-6-oxopyridin-3-yl)phenyl]-4,4-dimethyl-7-thia-10-azatricyclo[6.4.0.0^2,6]dodeca-1(8),2(6)-dien-9-one]

melting point: 170 to 171 °C
Structure (SMILES): Cn1cc(-c2cccc(-n3ccc4c5c(sc4c3=O)CC(C)(C)C5)c2CO)cc(Nc2ccncn2)c1=O [Example 203, 5-(3-(6,6-Dimethyl-5,7-dihydro-5H-cyclopenta[4,5]thieno[2,3-c]pyridine-1(2H)-yl)-2-(hydroxymethyl)phenyl)-1-methyl-3-(pyrimidin-4-ylamino)pyridin-2(1H)-one]

IC50 ([3]; Table 2): 3.6 nM
EC50 [1]: 11 nM
Structure (SMILES): CCN1CCn2nc(Nc3cc(-c4cc(F)cc(N5CCn6c(cc7c6CC(C)(C)C7)C5=O)c4CO)cn(C)c3=O)cc2C1 [Example 285, 10-{3-[5-({5-Ethyl-4H,5H,6H,7H-pyrazolo[1,5-a]pyrazin-2-yl}amino)-1-methyl-6-oxo-1,6-dihydropyridin-3-yl]-5-fluoro-2-(hydroxymethyl)phenyl}-4,4-dimethyl-1,10-diazatricyclo[6.4.0.0^2,6]dodeca-2(6),7-dien-9-one]

melting point: 199 to 200 °C
Structure (SMILES): Cc1cc(Nc2cc(-c3cccc(N4CCc5c(cc6n5CCCC6)C4=O)c3CO)cn(C)c2=O)n[nH]1 [Example 225, 2-(2-(Hydroxymethyl)-3-(1-methyl-5-(5-methyl-1H-pyrazol-3-ylamino)-6-oxo-1,6-dihydropyridin-3-yl)phenyl)-3,4,6,7,8,9-hexahydropyrido[3,4-b]indolizin-1(2H)-one]

melting point: 143 to 145 °C
Structure (SMILES): CN1CCN(c2ccc(Nc3cc(-c4cc(F)cc(N5CCc6c(sc7c6CC(C)(C)C7)C5=O)c4CO)cn(C)c3=O)nc2)CC1 [Example 204]

melting point: 227 to 229 °C
Structure (SMILES): Cn1cc(-c2cccc(N3CCc4c(cc5n4CCCC5)C3=O)c2CO)cc(Nc2ccc(C3CNC3)cn2)c1=O [Example 227, 2-(3-(5-(5-(Azetidin-3-yl)pyridin-2-ylamino)-1-methyl-6-oxo-1,6-dihydropyridin-3-yl)-2-(hydroxymethyl)phenyl)-3,4,6,7,8,9-hexahydropyrido[3,4-b]indolizin-1(2H)-one]

melting point: 135 to 136 °C
Structure (SMILES): Cn1cc(-c2cccc(N3CCc4c(sc5c4CC(C)(C)C5)C3=O)c2CO)nc(Nc2cccnc2)c1=O [Example 193, 5-(2-(Hydroxymethyl)-3-(6,6-dimethyl-3,4,6,7-tetrahydro-5H-cyclopenta[4,5]thieno[2,3-c]pyridine-1(2H)-yl))-1-methyl-3-(pyridin-3-ylamino)pyrazin-2(1H)-one]

IC50 [2]: 24 nM
Structure (SMILES): CN1CCN(c2ccc(Nc3cc(-c4cc(F)cc(N5CCn6c(cc7c6CCCC7)C5=O)c4CO)cn(C)c3=O)nc2)C(=O)C1 [Example 345, 2-(5-fluoro-2-(hydroxymethyl)-3-(1-methyl-5-(5-(4-methyl-2-oxopiperazin-1-yl)pyridin-2-ylamino)-6-oxo-1,6-dihydropyridin-3-yl)phenyl)-3,4,6,7,8,9-hexahydropyrazino[1,2-a]indol-1(2H)-one]

IC50 [2]: 53 nM
Structure (SMILES): CN(Cc1cc(Nc2cc(-c3cc(F)cc(N4CCc5c(sc6c5CCCC6)C4=O)c3CO)cn(C)c2=O)nn1C)C1COC1 [Example 324, 5-[5-Fluoro-2-(hydroxymethyl)-3-{1-methyl-5-[(1-methyl-5-{[methyl(oxetan-3-yl)amino]methyl}-1H-pyrazol-3-yl)amino]-6-oxo-1,6-dihydropyridin-3-yl}phenyl]-8-thia-5-azatricyclo[7.4.0.0^2,7]trideca-1(9),2(7)-dien-6-one]

IC50 ([3]; Table 1): 5 nM
EC50 [1]: 21 nM
Structure (SMILES): CN1CCN(c2ccc(Nc3cc(-c4cccc(N5CCn6c(cc7c6CCCC7)C5=O)c4CO)cn(C)c3=O)nc2)CC1 [Example 113, 2-(2-(hydroxymethyl)-3-(1-methyl-5-(5-(4-methylpiperazin-1-yl)pyridine-2-ylamino)-6-oxo-1,6-dihydropyridin-3-yl)phenyl)-3,4,6,7,8,9-hexahydropyrazino[1,2-a]indol-1(2H)-one]

IC50 [2]: 53 nM
Structure (SMILES): COCc1c(-c2cc(Nc3ccc(N4CCN(C)CC4)cn3)c(=O)n(C)c2)cc(F)cc1N1CCn2c(cc3c2CCCC3)C1=O [Example 343, 2-{5-fluoro-2-(methoxymethyl)-3-(1-methyl-5-(5-(4-methylpiperazin-1-yl)pyridin-2-ylamino)-6-oxo-1,6-dihydropyridin-3-yl)phenyl)-3,4,6,7,8,9-hexahydropyrazino[1,2-a]indol-1(2H)-one]

melting point: 167 to 168 °C
Structure (SMILES): Cn1cc(-c2cccc(N3CCc4c(sc5c4CC(C)(C)C5)C3=O)c2CO)cc(Nc2cc3n(n2)CCOC3)c1=O [Example 183]

IC50 ([3]; Table 2): 2.8 nM
EC50 [1]: 6 nM
Structure (SMILES): CCN1CCc2nc(Nc3cc(-c4cc(F)cc(N5CCn6c(cc7c6CC(C)(C)C7)C5=O)c4CO)cn(C)c3=O)ccc2C1 [Example 284, 10-(3-{5-[(6-Ethyl-5,6,7,8-tetrahydro-1,6-naphthyridin-2-yl)amino]-1-methyl-6-oxo-1,6-dihydropyridin-3-yl}-5-fluoro-2-(hydroxymethyl)phenyl)-4,4-dimethyl-1,10-diazatricyclo[6.4.0.0^2,6]dodeca-2(6),7-dien-9-one]

IC50 ([3]; Table 2): 16.3 nM
melting point: 180 to 181 °C
Structure (SMILES): CN1CCN(c2ccc(Nc3cc(-c4cccc(N5CCc6c(cc7n6CCCC7)C5=O)c4CO)cn(C)c3=O)nc2)CC1 [Example 275, 2-(2-(Hydroxymethyl)-3-(1-methyl-5-(5-(4-methylpiperazin-1-yl)pyridin-2-ylamino)-6-oxo-1,6-dihydropyridin-3-yl)phenyl)-3,4,6,7,8,9-hexahydropyrido[3,4-b]indolizin-1(2H)-one]

melting point: 175 to 177 °C
Structure (SMILES): Cn1cc(-c2cc(F)cc(N3CCc4c(sc5c4CC(C)(C)C5)C3=O)c2CO)cc(Nc2ccc(N3CCN(C4COC4)CC3)cn2)c1=O [Example 237]

IC50 ([3]; Table 2): 6.35 nM
EC50 [1]: 3 nM
Structure (SMILES): Cn1cc(-c2cc(F)cc(N3CCn4c(cc5c4CC(C)(C)C5)C3=O)c2CO)cc(Nc2ccc(N3CCN(CCF)CC3)cn2)c1=O [Example 273, 10-{5-Fluoro-3-[5-({5-[4-(2-fluoroethyl)piperazin-1-yl]pyridine-2-yl}amino)-1-methyl-6-oxo-1,6-dihydropyridin-3-yl]-2-(hydroxymethyl)phenyl}-4,4-dimethyl-1,10-diazatricyclo[6.4.0.0^2,6]dodeca-2(6),7-dien-9-one]
